Laboratory results from PubChem BioAssay (NCI).
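Exposure lasted 48 hours, with cells grown in 96-well plates and compounds tested at five concentrations. TGI: total growth inhibition.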

Test system: SK-MEL-2 melanoma
Assay: DTP human tumour cell line panel, 48 h

Structure (SMILES) | TGI [µM]
Cc1ccc(SCC(CF)OC(C)n2cnc3c(=O)[nH]c(N)nc32)cc1 (stereo not drawn) | > 100
COC(CNC(=O)C(C)NC(=O)CCc1ccccc1)OC (stereo not drawn) | > 100
COc1ccc(C(=C(Cl)c2ccccc2)c2ccc(OC)cc2)cc1 | > 100
O=C(NCCCNCCCNC(=O)c1cc(-c2ccccc2)nc2ccccc12)c1cc(-c2ccccc2)nc2ccccc12 | 3.55
NC(Cc1ccccc1)C(=O)N[C@H]1c2ccsc2/C(=N/O)[C@H]1O (stereo partly drawn) | > 100

Test system: SK-MEL-28 melanoma
Assay: DTP human tumour cell line panel, 48 h

Structure (SMILES) | TGI [µM]
CC(C)(C)c1cc(Br)c(O)c(CN(Cc2cc(C(C)(C)C)cc(Br)c2O)C2CCCCC2)c1 | 28.9
O=Cc1ccc(OCc2cccc(COc3ccc(/C=N\Nc4ccc([N+](=O)[O-])cc4[N+](=O)[O-])cc3)n2)cc1 | > 100
O=C(N/N=C/c1ccccc1)c1c(-c2cccnc2)cnc2ccccc12 | > 100
Cc1ccc(SCC(CF)OC(C)n2cnc3c(=O)[nH]c(N)nc32)cc1 (stereo not drawn) | > 100
COC(CNC(=O)C(C)NC(=O)CCc1ccccc1)OC (stereo not drawn) | > 100
COc1ccc(C(=C(Cl)c2ccccc2)c2ccc(OC)cc2)cc1 | > 100
O=C(NCCCNCCCNC(=O)c1cc(-c2ccccc2)nc2ccccc12)c1cc(-c2ccccc2)nc2ccccc12 | 3.09
NC(Cc1ccccc1)C(=O)N[C@H]1c2ccsc2/C(=N/O)[C@H]1O (stereo partly drawn) | > 100

Test system: SK-MEL-5 melanoma
Assay: DTP human tumour cell line panel, 48 h

Structure (SMILES) | TGI [µM]
CC(C)(C)c1cc(Br)c(O)c(CN(Cc2cc(C(C)(C)C)cc(Br)c2O)C2CCCCC2)c1 | 22.8
O=Cc1ccc(OCc2cccc(COc3ccc(/C=N\Nc4ccc([N+](=O)[O-])cc4[N+](=O)[O-])cc3)n2)cc1 | > 100
O=C(N/N=C/c1ccccc1)c1c(-c2cccnc2)cnc2ccccc12 | > 100
Cc1ccc(SCC(CF)OC(C)n2cnc3c(=O)[nH]c(N)nc32)cc1 (stereo not drawn) | 47.6
COC(CNC(=O)C(C)NC(=O)CCc1ccccc1)OC (stereo not drawn) | > 100
COc1ccc(C(=C(Cl)c2ccccc2)c2ccc(OC)cc2)cc1 | > 100
O=C(NCCCNCCCNC(=O)c1cc(-c2ccccc2)nc2ccccc12)c1cc(-c2ccccc2)nc2ccccc12 | 3.45
NC(Cc1ccccc1)C(=O)N[C@H]1c2ccsc2/C(=N/O)[C@H]1O (stereo partly drawn) | > 100

Test system: SK-OV-3 ovarian
Assay: DTP human tumour cell line panel, 48 h

Structure (SMILES) | TGI [µM]
CC(C)(C)c1cc(Br)c(O)c(CN(Cc2cc(C(C)(C)C)cc(Br)c2O)C2CCCCC2)c1 | 29.2
O=C(N/N=C/c1ccccc1)c1c(-c2cccnc2)cnc2ccccc12 | > 100
Cc1ccc(SCC(CF)OC(C)n2cnc3c(=O)[nH]c(N)nc32)cc1 (stereo not drawn) | > 100
COC(CNC(=O)C(C)NC(=O)CCc1ccccc1)OC (stereo not drawn) | > 100
COc1ccc(C(=C(Cl)c2ccccc2)c2ccc(OC)cc2)cc1 | > 100
O=C(NCCCNCCCNC(=O)c1cc(-c2ccccc2)nc2ccccc12)c1cc(-c2ccccc2)nc2ccccc12 | 4.95
NC(Cc1ccccc1)C(=O)N[C@H]1c2ccsc2/C(=N/O)[C@H]1O (stereo partly drawn) | > 100

Test system: SN12C renal
Assay: DTP human tumour cell line panel, 48 h

Structure (SMILES) | TGI [µM]
CC(C)(C)c1cc(Br)c(O)c(CN(Cc2cc(C(C)(C)C)cc(Br)c2O)C2CCCCC2)c1 | 28
O=Cc1ccc(OCc2cccc(COc3ccc(/C=N\Nc4ccc([N+](=O)[O-])cc4[N+](=O)[O-])cc3)n2)cc1 | > 100
O=C(N/N=C/c1ccccc1)c1c(-c2cccnc2)cnc2ccccc12 | > 100
Cc1ccc(SCC(CF)OC(C)n2cnc3c(=O)[nH]c(N)nc32)cc1 (stereo not drawn) | > 100
COC(CNC(=O)C(C)NC(=O)CCc1ccccc1)OC (stereo not drawn) | > 100
COc1ccc(C(=C(Cl)c2ccccc2)c2ccc(OC)cc2)cc1 | > 100
NC(Cc1ccccc1)C(=O)N[C@H]1c2ccsc2/C(=N/O)[C@H]1O (stereo partly drawn) | > 100

Test system: SNB-19 CNS
Assay: DTP human tumour cell line panel, 48 h

Structure (SMILES) | TGI [µM]
CC(C)(C)c1cc(Br)c(O)c(CN(Cc2cc(C(C)(C)C)cc(Br)c2O)C2CCCCC2)c1 | 27.1
O=Cc1ccc(OCc2cccc(COc3ccc(/C=N\Nc4ccc([N+](=O)[O-])cc4[N+](=O)[O-])cc3)n2)cc1 | > 100
O=C(N/N=C/c1ccccc1)c1c(-c2cccnc2)cnc2ccccc12 | > 100
Cc1ccc(SCC(CF)OC(C)n2cnc3c(=O)[nH]c(N)nc32)cc1 (stereo not drawn) | > 100
COC(CNC(=O)C(C)NC(=O)CCc1ccccc1)OC (stereo not drawn) | > 100
COc1ccc(C(=C(Cl)c2ccccc2)c2ccc(OC)cc2)cc1 | > 100

Test system: SNB-75 CNS
Assay: DTP human tumour cell line panel, 48 h

Structure (SMILES) | TGI [µM]
CC(C)(C)c1cc(Br)c(O)c(CN(Cc2cc(C(C)(C)C)cc(Br)c2O)C2CCCCC2)c1 | 20.9
O=C(N/N=C/c1ccccc1)c1c(-c2cccnc2)cnc2ccccc12 | > 100
Cc1ccc(SCC(CF)OC(C)n2cnc3c(=O)[nH]c(N)nc32)cc1 (stereo not drawn) | > 100
COC(CNC(=O)C(C)NC(=O)CCc1ccccc1)OC (stereo not drawn) | > 100
O=C(NCCCNCCCNC(=O)c1cc(-c2ccccc2)nc2ccccc12)c1cc(-c2ccccc2)nc2ccccc12 | 2.96

Test system: SR leukemia
Assay: DTP human tumour cell line panel, 48 h

Structure (SMILES) | TGI [µM]
CC(C)(C)c1cc(Br)c(O)c(CN(Cc2cc(C(C)(C)C)cc(Br)c2O)C2CCCCC2)c1 | 25.6
O=Cc1ccc(OCc2cccc(COc3ccc(/C=N\Nc4ccc([N+](=O)[O-])cc4[N+](=O)[O-])cc3)n2)cc1 | 75.3
O=C(N/N=C/c1ccccc1)c1c(-c2cccnc2)cnc2ccccc12 | > 100
Cc1ccc(SCC(CF)OC(C)n2cnc3c(=O)[nH]c(N)nc32)cc1 (stereo not drawn) | > 100
COC(CNC(=O)C(C)NC(=O)CCc1ccccc1)OC (stereo not drawn) | > 100
NC(Cc1ccccc1)C(=O)N[C@H]1c2ccsc2/C(=N/O)[C@H]1O (stereo partly drawn) | > 100

Test system: SW-620 colon
Assay: DTP human tumour cell line panel, 48 h

Structure (SMILES) | TGI [µM]
CC(C)(C)c1cc(Br)c(O)c(CN(Cc2cc(C(C)(C)C)cc(Br)c2O)C2CCCCC2)c1 | 25.8
O=Cc1ccc(OCc2cccc(COc3ccc(/C=N\Nc4ccc([N+](=O)[O-])cc4[N+](=O)[O-])cc3)n2)cc1 | > 100
O=C(N/N=C/c1ccccc1)c1c(-c2cccnc2)cnc2ccccc12 | > 100
Cc1ccc(SCC(CF)OC(C)n2cnc3c(=O)[nH]c(N)nc32)cc1 (stereo not drawn) | > 100
COC(CNC(=O)C(C)NC(=O)CCc1ccccc1)OC (stereo not drawn) | > 100
COc1ccc(C(=C(Cl)c2ccccc2)c2ccc(OC)cc2)cc1 | > 100
NC(Cc1ccccc1)C(=O)N[C@H]1c2ccsc2/C(=N/O)[C@H]1O (stereo partly drawn) | > 100

Test system: T-47D breast
Assay: DTP human tumour cell line panel, 48 h

Structure (SMILES) | TGI [µM]
CC(C)(C)c1cc(Br)c(O)c(CN(Cc2cc(C(C)(C)C)cc(Br)c2O)C2CCCCC2)c1 | 21.4
O=Cc1ccc(OCc2cccc(COc3ccc(/C=N\Nc4ccc([N+](=O)[O-])cc4[N+](=O)[O-])cc3)n2)cc1 | > 100
Cc1ccc(SCC(CF)OC(C)n2cnc3c(=O)[nH]c(N)nc32)cc1 (stereo not drawn) | > 100
COC(CNC(=O)C(C)NC(=O)CCc1ccccc1)OC (stereo not drawn) | > 100
COc1ccc(C(=C(Cl)c2ccccc2)c2ccc(OC)cc2)cc1 | > 100
NC(Cc1ccccc1)C(=O)N[C@H]1c2ccsc2/C(=N/O)[C@H]1O (stereo partly drawn) | > 100

Test system: TK-10 renal
Assay: DTP human tumour cell line panel, 48 h

Structure (SMILES) | TGI [µM]
CC(C)(C)c1cc(Br)c(O)c(CN(Cc2cc(C(C)(C)C)cc(Br)c2O)C2CCCCC2)c1 | 29.2
O=Cc1ccc(OCc2cccc(COc3ccc(/C=N\Nc4ccc([N+](=O)[O-])cc4[N+](=O)[O-])cc3)n2)cc1 | > 100
O=C(N/N=C/c1ccccc1)c1c(-c2cccnc2)cnc2ccccc12 | > 100
Cc1ccc(SCC(CF)OC(C)n2cnc3c(=O)[nH]c(N)nc32)cc1 (stereo not drawn) | > 100
COC(CNC(=O)C(C)NC(=O)CCc1ccccc1)OC (stereo not drawn) | > 100
COc1ccc(C(=C(Cl)c2ccccc2)c2ccc(OC)cc2)cc1 | > 100
O=C(NCCCNCCCNC(=O)c1cc(-c2ccccc2)nc2ccccc12)c1cc(-c2ccccc2)nc2ccccc12 | 3.22
NC(Cc1ccccc1)C(=O)N[C@H]1c2ccsc2/C(=N/O)[C@H]1O (stereo partly drawn) | > 100

Test system: U251 CNS
Assay: DTP human tumour cell line panel, 48 h

Structure (SMILES) | TGI [µM]
CC(C)(C)c1cc(Br)c(O)c(CN(Cc2cc(C(C)(C)C)cc(Br)c2O)C2CCCCC2)c1 | 26.8
O=Cc1ccc(OCc2cccc(COc3ccc(/C=N\Nc4ccc([N+](=O)[O-])cc4[N+](=O)[O-])cc3)n2)cc1 | > 100
O=C(N/N=C/c1ccccc1)c1c(-c2cccnc2)cnc2ccccc12 | > 100
Cc1ccc(SCC(CF)OC(C)n2cnc3c(=O)[nH]c(N)nc32)cc1 (stereo not drawn) | > 100
COC(CNC(=O)C(C)NC(=O)CCc1ccccc1)OC (stereo not drawn) | > 100
COc1ccc(C(=C(Cl)c2ccccc2)c2ccc(OC)cc2)cc1 | > 100
NC(Cc1ccccc1)C(=O)N[C@H]1c2ccsc2/C(=N/O)[C@H]1O (stereo partly drawn) | > 100

Test system: UACC-257 melanoma
Assay: DTP human tumour cell line panel, 48 h

Structure (SMILES) | TGI [µM]
CC(C)(C)c1cc(Br)c(O)c(CN(Cc2cc(C(C)(C)C)cc(Br)c2O)C2CCCCC2)c1 | 16.5
O=Cc1ccc(OCc2cccc(COc3ccc(/C=N\Nc4ccc([N+](=O)[O-])cc4[N+](=O)[O-])cc3)n2)cc1 | > 100
O=C(N/N=C/c1ccccc1)c1c(-c2cccnc2)cnc2ccccc12 | > 100
Cc1ccc(SCC(CF)OC(C)n2cnc3c(=O)[nH]c(N)nc32)cc1 (stereo not drawn) | > 100
COC(CNC(=O)C(C)NC(=O)CCc1ccccc1)OC (stereo not drawn) | > 100
COc1ccc(C(=C(Cl)c2ccccc2)c2ccc(OC)cc2)cc1 | > 100
O=C(NCCCNCCCNC(=O)c1cc(-c2ccccc2)nc2ccccc12)c1cc(-c2ccccc2)nc2ccccc12 | 3.73
NC(Cc1ccccc1)C(=O)N[C@H]1c2ccsc2/C(=N/O)[C@H]1O (stereo partly drawn) | > 100

Test system: UACC-62 melanoma
Assay: DTP human tumour cell line panel, 48 h

Structure (SMILES) | TGI [µM]
CC(C)(C)c1cc(Br)c(O)c(CN(Cc2cc(C(C)(C)C)cc(Br)c2O)C2CCCCC2)c1 | 25.3
O=Cc1ccc(OCc2cccc(COc3ccc(/C=N\Nc4ccc([N+](=O)[O-])cc4[N+](=O)[O-])cc3)n2)cc1 | > 100
O=C(N/N=C/c1ccccc1)c1c(-c2cccnc2)cnc2ccccc12 | > 100
Cc1ccc(SCC(CF)OC(C)n2cnc3c(=O)[nH]c(N)nc32)cc1 (stereo not drawn) | > 100
COC(CNC(=O)C(C)NC(=O)CCc1ccccc1)OC (stereo not drawn) | > 100
COc1ccc(C(=C(Cl)c2ccccc2)c2ccc(OC)cc2)cc1 | > 100
NC(Cc1ccccc1)C(=O)N[C@H]1c2ccsc2/C(=N/O)[C@H]1O (stereo partly drawn) | > 100

Test system: UO-31 renal
Assay: DTP human tumour cell line panel, 48 h

Structure (SMILES) | TGI [µM]
CC(C)(C)c1cc(Br)c(O)c(CN(Cc2cc(C(C)(C)C)cc(Br)c2O)C2CCCCC2)c1 | 27.4
O=Cc1ccc(OCc2cccc(COc3ccc(/C=N\Nc4ccc([N+](=O)[O-])cc4[N+](=O)[O-])cc3)n2)cc1 | > 100
O=C(N/N=C/c1ccccc1)c1c(-c2cccnc2)cnc2ccccc12 | > 100
Cc1ccc(SCC(CF)OC(C)n2cnc3c(=O)[nH]c(N)nc32)cc1 (stereo not drawn) | > 100
COC(CNC(=O)C(C)NC(=O)CCc1ccccc1)OC (stereo not drawn) | > 100
COc1ccc(C(=C(Cl)c2ccccc2)c2ccc(OC)cc2)cc1 | > 100
O=C(NCCCNCCCNC(=O)c1cc(-c2ccccc2)nc2ccccc12)c1cc(-c2ccccc2)nc2ccccc12 | 3.38
NC(Cc1ccccc1)C(=O)N[C@H]1c2ccsc2/C(=N/O)[C@H]1O (stereo partly drawn) | > 100
